Each structure is given as a SMILES string. “Also recorded” adds a separate entry of the source. Like-named read-outs stand apart in the source and are kept apart here.

One data set has as its system L1210 leukemia. The note with it: 10-100 mg/kg intraperitoneally; cited from earlier work.
A further data set concerns topoisomerase I. The note with it: cited from earlier work.
For data set [1] the following is noted: cited from earlier work.
The subject of another data set is preclinical tumor models. The conditions noted are these: cited from earlier work.
For data set [2] the following is noted: Phase II; cited from earlier work.
For data set [3] the following is noted: mice; cited from earlier work.
The conditions of data set [4]: cited from earlier work; for sporadic toxicities: relative to parent compound.
The conditions of data set [5]: 5-day continuous intravenous infusion; cited from earlier work.
For the next data set, the system named is human tumors. The note with it: nude mice xenografts; cited from earlier work.
In data set [6] the test system is Refractory or Relapsed Small Cell Lung Ca. The conditions noted are these: 100 mg/m^2 weekly; cited from earlier work.
The subject of a further data set is Colon cancer. The note with it: 100 mg/m^2/week or 150 mg/m^2/Q 2 wks; cited from earlier work.
A short description of data set [7]: Fractional amounts of lactone species of CPT-11 and HECPT (Rothenburg et al.). The note with it: Table 4. Format: in vivo, human. An excerpt:
Fractional Amounts of Lactone Species of CPT-11 and HECPT as
Function of Increasing Single Dose LV. From Rothenburg et al.

The test system of a further data set is Small Cell Lung Cancer. The conditions noted are these: 100 mg/m^2/week; cited from earlier work.
For another data set, the system named is Tumor. The conditions noted are these: cited from earlier work; for Toxicity: * dose limiting toxicity.
Data set [8] concerns Untreated Non Small Cell Lung Cancer. The note with it: 100 mg/m^2 weekday; cited from earlier work.
The next data set concerns Leukemia/Lymphoma. The conditions noted are these: cited from earlier work.
The subject of data set [9] is Topoisomerase I purified from human colon carcinoma cells or calf thymus. The note with it: cited from earlier work.
For data set [10] the following is noted: cited from earlier work. This is another data set of the same source.
For data set [11] the following is noted: cited from earlier work. This is another data set of the same source.
The subject of another data set is Cervical cancer. The conditions noted are these: 100 mg/m^2 weekly, 150 mg/m^2 weeks; cited from earlier work.
For data set [12] the following is noted: U.S. Pat. No. 4,713,246; cited from earlier work.
[13] abbreviates: first Rothenberg line, no dose given.

Regarding `CCc1c2c(nc3ccccc13)-c1cc3c(c(=O)n1C2)COC(=O)C3(O)CC` (centres unmarked) [ECPT, 7-ethyl camptothecin], in the data set on L1210 leukemia, the “results relative to CPT-11 under the same conditions” value is given as “inferior”. Also, the “inhibition of Topoisomerase I” value in the data set with topoisomerase I was “potent inhibitor”. For the same compound, the solubility in water result in data set [1] is “insufficiently water soluble for clinical use”. The “antitumor activity in preclinical studies” value (from here on “antitumor activity”) in the data set with preclinical tumor models is “broad anticancer activity”.

Take `CCC(O)(C(=O)O)c1cc2n(c(=O)c1CO)Cc1cc3ccccc3nc1-2` (centres unmarked) [sodium camptothecin]: the “toxicity in Phase II studies” value in [2] is “unpredictable and severe myelosuppression, gastrointestinal toxicity, hemorrhagic cystitis, and alopecia”.

As for `CC[C@@]1(O)C(=O)OCc2c1cc1n(c2=O)Cc2cc3ccccc3nc2-1` [lactone form of camptothecin], the “toxicity relative to sodium camptothecin” value in data set [3] is listed as 10 fold. Moreover, the “antitumor activity” value in the data set with preclinical tumor models is “significant antitumor activity”.

Turning to `CC[C@@]1(O)C(=O)OCc2c1cc1n(c2=O)Cc2cc3cc4c(cc3nc2-1)OCO4` [10,11 methylene dioxycamptothecin, 10,11 methylenedioxy camptothecin], in the data set with preclinical tumor models, the “antitumor activity” value is “very active”.

Regarding `CC[C@@]1(O)C(=O)OCc2c1cc1n(c2=O)Cc2cc3c(CN(C)C)c(O)ccc3nc2-1` [topotecan], the “activity relative to parent compound” value in data set [4] (human, in vivo) is “retain significant activity of the parent compound”. Also, in [4], the sporadic toxicities entry was “less sporadic toxicities”.

The term AUC denotes concentration integrated over time. Take `CCc1c2c(nc3ccc(OC(=O)N4CCC(N5CCCCC5)CC4)cc13)-c1cc3c(c(=O)n1C2)COC(=O)[C@]3(O)CC` [CPT-11, 7-Ethyl-10-[4-(1-piperidino)-1-piperidino]Carbonyloxy-Camptothecin]: the sporadic toxicities result in [4] is on record as “less sporadic toxicities”. Further, the “interpatient variability in AUC and metabolism to HECPT” value in data set [5] was “large range of interpatient variability”. In the data set on human tumors, the “sensitivity of human tumors in relation to ability to produce HECPT” value is “independent of their ability to produce HECPT”. For the same compound, the “Reported Toxicities” value is reported as “Neutropenia, diarrhea” in [6]; “anorexia, alopecia; also recorded: Neutropenia diarrhea; also recorded: nausea, vomiting” in data set [8]; “Thrombocytopenia” in the data set with Leukemia/Lymphoma (incidence not given). Further, the “Reported Toxicities: pneumonitis” value in [6] is 12.5%. Besides, the “Response (PRs)” value in data set [6] was 7/15; in data set [8], 23/72. Besides, the “Response Rate” value was 47% in data set [6], 46% with Colon cancer, 31.9% in data set [8] and “No resp” with Leukemia/Lymphoma (200 mg Q3). Besides, the “Reported Toxicities: NN” value in the data set on Colon cancer was 35%. Also, the “Reported Toxicities: Neutropenia” value in the data set with Colon cancer is on record as 53%; in the data set on Leukemia/Lymphoma (in vivo), 91%; with Cervical cancer, 89%. Also, the “Reported Toxicities: diarrhea” value with Colon cancer is 24%; with Small Cell Lung Cancer, 53.8%; in the data set on Cervical cancer it was 39.1%. Further, the “Response (PR)” value in the data set on Colon cancer was 6/17. Besides, in data set [7], the “overall fractional concentration of the lactone species through a range of doses” value is reported as “fairly constant”. The “Reported Toxicities: N/V” value is listed as 61.5% with Small Cell Lung Cancer and 51% with Cervical cancer. For the same compound, the “Reported Toxicities: alopecia” value with Small Cell Lung Cancer was 40.0%; in the data set with Cervical cancer it was 38.1%. The “Response: CRs” value in the data set with Small Cell Lung Cancer was 2 CRs. In the data set with Small Cell Lung Cancer, the “Response: PRs” value is 7 PRs. The Toxicity result is “Neutropenia* diarrhea; also recorded: nausea and vomiting; also recorded: alopecia” with Tumor (Clavel et al, 90 min. QDx3 Q21 days, 115 mg/m^2/d (33-115)); “Neutropenia* diarrhea*; also recorded: vomiting, alopecia; also recorded: fatigue stomatitis” in the data set with Tumor (Culine et al, 90 min. Q21 days, 150 mg/m^2/wk (50-150)); “Diarrhea*, N/V” in the data set with Tumor (Negoro et al, 30 min infusion, 100 mg/m^2 (50-150)); “Neutropenia, nausea; also recorded: vomiting, alopecia” in the data set on Tumor (Rothenberg et al, 90 mg QWx4 Q42 days, 180 mg/m^2/wk (50-180)); “Neutropenia* vomiting; also recorded: diarrhea abd. pain; also recorded: flushing” with Tumor (Rowinsky et al, 90 min infusion Q21 day, 240 mg/m^2 (100-345)). For the same compound, the “Tumor Type (responses)” value is on record as 1 PR in the data set with Tumor (Clavel et al, Breast); 1 PR with Tumor (Clavel et al, Mesothelioma); 1 PR in the data set on Tumor (Culine et al, cervix); 1 PR in the data set on Tumor (Culine et al, esophagus); 1 PR in the data set on Tumor (Culine et al, ovarian); 1 PR in the data set on Tumor (Culine et al, renal). Further, the “Tumor Type (responses)” value in the data set with Tumor (Negoro et al, NS CLC) is given as 2 PRs; in the data set with Tumor (Ohe et al, 120 hr CI), “None”; in the data set on Tumor (Rothenberg et al, Colon Ca) it was 2 PRs; in the data set on Tumor (Rowinsky et al, Cervix Ca), 1 PR; in the data set on Tumor (Rowinsky et al, Colon Ca), 1 PR. Besides, the “Response Rate (RR)” value in the data set on Leukemia/Lymphoma (20 mg/m^2 bid x7) is recorded as 25%. The “Response Rate (PR)” value in the data set on Leukemia/Lymphoma (40 mg/m^2 Q0x5) is recorded as 34%. The “Reported Toxicities: Gastrointestinal” value in the data set with Leukemia/Lymphoma (in vivo) was 76%. Further, in data set [9], the “inhibition of purified topoisomerase I” value is on record as “inhibited”. The AUC in data set [10] (CPT-11 50 mg/m^2/wkx4) is 2.97 µg·h/mL; in [10] (CPT-11 100 mg/m^2/wkx4), 2.23 µg·h/mL; in [10] (CPT-11 150 mg/m^2/wk X4), 2.81 µg·h/mL; in [10] (CPT-11 180 mg/m^2/wk X4), 3.83 µg·h/mL; in data set [10] (setting [13]), 1.13 µg·h/mL. Further, the CpMax in [10] (CPT-11 50 mg/m^2/wkx4) was 1.70 µg/mL; in data set [10] (CPT-11 100 mg/m^2/wkx4) it was 1.29 µg/mL; in data set [10] (CPT-11 150 mg/m^2/wk X4), 1.56 µg/mL; in data set [10] (CPT-11 180 mg/m^2/wk X4) it was 1.97 µg/mL; in data set [10] (setting [13]), 0.89 µg/mL. Moreover, the “Fractional amount of lactone species, CpMax Based” value is on record as 0.51 in data set [11] (single dose I.V. CPT-11 50 mg/m^2); 0.44 in [11] (single dose I.V. CPT-11 80 mg/m^2); 0.53 in data set [11] (single dose I.V. CPT-11 100 mg/m^2); 0.55 in [11] (single dose I.V. CPT-11 125 mg/m^2); 0.42 in [11] (single dose I.V. CPT-11 150 mg/m^2); 0.42 in [11] (single dose I.V. CPT-11 180 mg/m^2). For the same compound, the “Response (complete responses)” value in the data set on Cervical cancer is given as “SCR”. The “Response: PR” value with Cervical cancer is 8 PR.

Take `COc1cc([C@@H]2c3cc4c(cc3[C@@H](O[C@@H]3O[C@@H]5CO[C@@H](C)O[C@H]5[C@H](O)[C@H]3O)[C@H]3COC(=O)[C@H]23)OCO4)cc(OC)c1O` [etoposide]: the “bioavailability following oral administration versus intravenous” value in data set [12] is “substantially equivalent”.

(Values after patent US5604233A, “Lactone stable formulation of 7-ethyl camptothecin and methods for uses thereof” (priority 1994, dated 1997).)
